Reference: PMC12586182 (Frontiers in Oncology, 2025)

Experiments:
Experiment in all cases: Kinase panel profiling at 1 µmol/L (mobility shift assay, Carna)
Assay type in all cases: biochemical
Details in all cases: 1 µmol/L of BTK inhibitor
HCK = target: T1, HCK (Homo sapiens, UniProt P08631)
T1 construct: purchased Carna Biosciences

NEK1 = target: T2, NEK1 (Homo sapiens, UniProt Q96PY6)
T2 construct: purchased Carna Biosciences
T2 sequence (Q96PY6 1-1258): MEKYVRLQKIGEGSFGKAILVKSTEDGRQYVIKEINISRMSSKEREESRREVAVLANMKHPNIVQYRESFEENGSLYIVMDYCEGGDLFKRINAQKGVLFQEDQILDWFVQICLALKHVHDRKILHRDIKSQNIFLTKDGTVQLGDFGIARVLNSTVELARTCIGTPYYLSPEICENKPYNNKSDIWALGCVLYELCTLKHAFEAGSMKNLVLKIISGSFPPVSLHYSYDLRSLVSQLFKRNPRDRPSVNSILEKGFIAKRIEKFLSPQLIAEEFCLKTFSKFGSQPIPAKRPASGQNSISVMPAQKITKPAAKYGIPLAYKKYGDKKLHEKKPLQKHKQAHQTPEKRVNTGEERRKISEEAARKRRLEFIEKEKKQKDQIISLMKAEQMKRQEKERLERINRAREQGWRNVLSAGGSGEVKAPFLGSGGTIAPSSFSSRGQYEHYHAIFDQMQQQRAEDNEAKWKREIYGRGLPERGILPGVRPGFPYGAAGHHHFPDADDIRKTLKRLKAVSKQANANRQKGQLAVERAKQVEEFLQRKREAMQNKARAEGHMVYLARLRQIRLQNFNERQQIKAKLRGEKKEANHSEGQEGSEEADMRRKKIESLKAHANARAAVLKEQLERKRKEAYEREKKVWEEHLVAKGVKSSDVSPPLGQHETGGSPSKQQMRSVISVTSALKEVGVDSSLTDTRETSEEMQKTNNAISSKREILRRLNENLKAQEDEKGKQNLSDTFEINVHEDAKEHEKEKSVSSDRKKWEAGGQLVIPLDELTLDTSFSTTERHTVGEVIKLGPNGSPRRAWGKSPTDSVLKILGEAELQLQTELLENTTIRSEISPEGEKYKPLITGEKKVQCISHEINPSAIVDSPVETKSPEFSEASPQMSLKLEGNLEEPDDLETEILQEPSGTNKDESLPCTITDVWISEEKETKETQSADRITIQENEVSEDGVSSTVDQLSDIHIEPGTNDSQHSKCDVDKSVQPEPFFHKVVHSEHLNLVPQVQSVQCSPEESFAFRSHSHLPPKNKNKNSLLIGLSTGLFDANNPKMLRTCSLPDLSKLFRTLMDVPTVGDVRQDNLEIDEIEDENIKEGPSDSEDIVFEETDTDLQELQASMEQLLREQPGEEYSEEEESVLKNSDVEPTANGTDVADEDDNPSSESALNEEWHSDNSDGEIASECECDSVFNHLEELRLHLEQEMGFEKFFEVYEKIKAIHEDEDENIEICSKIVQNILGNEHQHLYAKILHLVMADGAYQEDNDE

CaMK2β = target: T3, CaMK2β (Homo sapiens, UniProt Q13554)
T3 construct: purchased Carna Biosciences
T3 sequence (Q13554 whole entry): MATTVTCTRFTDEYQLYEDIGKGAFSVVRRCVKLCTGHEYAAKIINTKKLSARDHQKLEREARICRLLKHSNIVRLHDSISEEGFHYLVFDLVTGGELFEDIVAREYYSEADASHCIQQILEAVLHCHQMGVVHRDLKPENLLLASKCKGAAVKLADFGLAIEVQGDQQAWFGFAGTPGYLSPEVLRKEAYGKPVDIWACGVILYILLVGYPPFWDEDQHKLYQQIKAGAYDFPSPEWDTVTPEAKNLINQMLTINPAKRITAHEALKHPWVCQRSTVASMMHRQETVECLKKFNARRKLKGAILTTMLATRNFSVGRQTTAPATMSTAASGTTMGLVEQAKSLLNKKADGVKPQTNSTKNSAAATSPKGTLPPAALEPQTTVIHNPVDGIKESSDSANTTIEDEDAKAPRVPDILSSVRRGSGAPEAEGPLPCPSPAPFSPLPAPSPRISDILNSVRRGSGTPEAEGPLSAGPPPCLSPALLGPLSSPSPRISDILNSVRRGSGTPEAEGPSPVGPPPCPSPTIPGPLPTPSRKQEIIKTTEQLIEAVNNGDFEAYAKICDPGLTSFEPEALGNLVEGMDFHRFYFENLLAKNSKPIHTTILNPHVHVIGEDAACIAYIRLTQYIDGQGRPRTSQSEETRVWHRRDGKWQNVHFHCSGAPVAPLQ

MST1 = target: T4, MST1 (Homo sapiens, UniProt Q13043)
T4 construct: purchased Carna Biosciences
T4 sequence (Q13043 1-487): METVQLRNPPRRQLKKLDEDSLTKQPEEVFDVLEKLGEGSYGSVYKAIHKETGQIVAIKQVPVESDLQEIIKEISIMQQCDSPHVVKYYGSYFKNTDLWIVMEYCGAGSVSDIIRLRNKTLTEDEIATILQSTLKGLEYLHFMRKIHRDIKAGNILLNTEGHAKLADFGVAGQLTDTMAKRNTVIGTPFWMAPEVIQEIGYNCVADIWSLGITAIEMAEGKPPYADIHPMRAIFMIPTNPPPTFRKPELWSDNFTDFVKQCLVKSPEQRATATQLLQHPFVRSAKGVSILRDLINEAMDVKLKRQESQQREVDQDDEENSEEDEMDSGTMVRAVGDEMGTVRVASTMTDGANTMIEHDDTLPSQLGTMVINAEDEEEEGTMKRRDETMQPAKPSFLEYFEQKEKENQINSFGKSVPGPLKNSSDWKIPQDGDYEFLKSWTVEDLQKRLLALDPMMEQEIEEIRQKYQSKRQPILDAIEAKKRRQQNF

QIK = target: T5, QIK (Homo sapiens, UniProt Q9H0K1)
T5 construct: purchased Carna Biosciences
T5 sequence (Q9H0K1 whole entry): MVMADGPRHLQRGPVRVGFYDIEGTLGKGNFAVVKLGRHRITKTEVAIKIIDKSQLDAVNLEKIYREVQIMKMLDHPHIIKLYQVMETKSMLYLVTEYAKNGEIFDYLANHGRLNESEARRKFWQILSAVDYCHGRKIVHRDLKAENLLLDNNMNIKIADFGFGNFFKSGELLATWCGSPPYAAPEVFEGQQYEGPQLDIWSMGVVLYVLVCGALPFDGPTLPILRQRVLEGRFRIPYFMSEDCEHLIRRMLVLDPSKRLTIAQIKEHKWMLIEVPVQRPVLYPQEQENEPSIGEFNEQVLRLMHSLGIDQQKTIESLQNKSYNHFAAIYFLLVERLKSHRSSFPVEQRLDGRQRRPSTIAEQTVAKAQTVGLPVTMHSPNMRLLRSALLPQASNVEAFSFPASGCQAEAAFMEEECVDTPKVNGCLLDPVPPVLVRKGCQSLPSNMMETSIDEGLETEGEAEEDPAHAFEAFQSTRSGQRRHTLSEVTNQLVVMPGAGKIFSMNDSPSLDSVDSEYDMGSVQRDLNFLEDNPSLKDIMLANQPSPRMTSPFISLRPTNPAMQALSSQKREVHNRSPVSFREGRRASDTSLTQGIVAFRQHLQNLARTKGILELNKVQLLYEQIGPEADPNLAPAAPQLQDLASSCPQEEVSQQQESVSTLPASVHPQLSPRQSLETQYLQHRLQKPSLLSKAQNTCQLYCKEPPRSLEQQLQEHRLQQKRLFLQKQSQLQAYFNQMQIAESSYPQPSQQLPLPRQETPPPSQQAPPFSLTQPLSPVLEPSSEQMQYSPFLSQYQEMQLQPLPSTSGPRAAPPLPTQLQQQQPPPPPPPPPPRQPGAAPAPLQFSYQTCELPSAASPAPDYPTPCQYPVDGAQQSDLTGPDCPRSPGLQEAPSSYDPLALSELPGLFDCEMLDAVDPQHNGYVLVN

ITK = target: T6, ITK (Homo sapiens, UniProt Q08881)
T6 construct: purchased Carna Biosciences
T6 sequence (Q08881 1-620): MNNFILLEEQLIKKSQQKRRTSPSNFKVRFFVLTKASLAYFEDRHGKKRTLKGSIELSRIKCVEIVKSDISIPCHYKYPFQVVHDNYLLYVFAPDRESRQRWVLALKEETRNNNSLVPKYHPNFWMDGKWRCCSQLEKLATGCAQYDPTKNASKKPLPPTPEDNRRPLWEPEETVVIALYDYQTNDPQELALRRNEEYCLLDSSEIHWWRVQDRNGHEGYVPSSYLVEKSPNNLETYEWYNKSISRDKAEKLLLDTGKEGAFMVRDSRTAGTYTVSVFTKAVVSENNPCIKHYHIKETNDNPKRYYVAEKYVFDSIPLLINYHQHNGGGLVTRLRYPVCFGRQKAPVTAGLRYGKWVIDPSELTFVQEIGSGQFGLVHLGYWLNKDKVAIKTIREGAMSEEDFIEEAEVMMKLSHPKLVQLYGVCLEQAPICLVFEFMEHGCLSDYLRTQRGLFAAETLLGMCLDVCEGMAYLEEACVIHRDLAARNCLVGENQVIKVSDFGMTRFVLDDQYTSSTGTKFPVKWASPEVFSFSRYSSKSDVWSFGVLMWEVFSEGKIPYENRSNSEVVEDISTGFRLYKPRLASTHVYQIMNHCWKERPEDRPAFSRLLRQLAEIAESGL

T1 sequence (P08631 whole entry): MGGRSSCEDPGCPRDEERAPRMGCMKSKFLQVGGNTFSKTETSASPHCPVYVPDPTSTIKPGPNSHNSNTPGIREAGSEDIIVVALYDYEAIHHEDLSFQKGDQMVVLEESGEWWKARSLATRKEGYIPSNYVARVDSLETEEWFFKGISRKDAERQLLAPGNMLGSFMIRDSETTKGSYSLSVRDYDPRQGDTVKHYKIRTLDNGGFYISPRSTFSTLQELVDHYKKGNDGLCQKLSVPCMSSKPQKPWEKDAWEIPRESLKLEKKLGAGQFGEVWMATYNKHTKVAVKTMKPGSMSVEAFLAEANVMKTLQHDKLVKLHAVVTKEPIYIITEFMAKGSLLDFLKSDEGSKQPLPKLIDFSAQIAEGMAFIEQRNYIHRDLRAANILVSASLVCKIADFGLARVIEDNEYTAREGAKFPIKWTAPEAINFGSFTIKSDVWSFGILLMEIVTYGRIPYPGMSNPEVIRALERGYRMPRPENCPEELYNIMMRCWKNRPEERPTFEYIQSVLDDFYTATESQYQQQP

## O=C(c1ccc(Oc2ccccc2)cc1Cl)c1c[nH]c2ncnc(N[C@@H]3CC[C@@H](CO)OC3)c12 [nemtabrutinib]
HCK
  Percentage inhibition of kinase enzyme activity: 96.80%
NEK1
  Percentage inhibition of kinase enzyme activity: -1.75%
CaMK2β
  Percentage inhibition of kinase enzyme activity: 2.18%
MST1
  Percentage inhibition of kinase enzyme activity: 96.55%
QIK
  Percentage inhibition of kinase enzyme activity: 81.76%
ITK
  Percentage inhibition of kinase enzyme activity: 8.66%

## CC#CC(=O)N1CCC[C@H]1c1nc(-c2ccc(C(=O)Nc3ccccn3)cc2)c2c(N)nccn12 [acalabrutinib]
HCK
  Percentage inhibition of kinase enzyme activity: 0.45%
NEK1
  Percentage inhibition of kinase enzyme activity: -7.46%
CaMK2β
  Percentage inhibition of kinase enzyme activity: -1.09%
MST1
  Percentage inhibition of kinase enzyme activity: 3.91%
QIK
  Percentage inhibition of kinase enzyme activity: -0.22%
ITK
  Percentage inhibition of kinase enzyme activity: 0.87%

## COc1ccc(F)cc1C(=O)NCc1ccc(-c2nn([C@@H](C)C(F)(F)F)c(N)c2C(N)=O)cc1 [pirtobrutinib]
HCK
  Percentage inhibition of kinase enzyme activity: 24.69%
NEK1
  Percentage inhibition of kinase enzyme activity: -2.24%
CaMK2β
  Percentage inhibition of kinase enzyme activity: -2.89%
MST1
  Percentage inhibition of kinase enzyme activity: 10.97%
QIK
  Percentage inhibition of kinase enzyme activity: 8.30%
ITK
  Percentage inhibition of kinase enzyme activity: 0.65%

## C=CC(=O)N1CCC([C@@H]2CCNc3c(C(N)=O)c(-c4ccc(Oc5ccccc5)cc4)nn32)CC1 [zanubrutinib]
ITK
  Percentage inhibition of kinase enzyme activity: -2.98%

## C=CC(=O)N1CCC[C@@H](n2nc(-c3ccc(Oc4ccccc4)cc3)c3c(N)ncnc32)C1 [ibrutinib]
HCK
  Percentage inhibition of kinase enzyme activity: 99.66%
NEK1
  Percentage inhibition of kinase enzyme activity: 3.73%
CaMK2β
  Percentage inhibition of kinase enzyme activity: -2.56%
MST1
  Percentage inhibition of kinase enzyme activity: 4.14%
QIK
  Percentage inhibition of kinase enzyme activity: 4.70%
ITK
  Percentage inhibition of kinase enzyme activity: 93.10%
